Source: patent publication US20190192532A1, “COMBINATION THERAPY OF BROMODOMAIN INHIBITORS AND CHECKPOINT BLOCKADE” (DANA-FARBER CANCER INSTITUTE, priority 2015, published 2019)

Legend:
PD-L1 (CD274) = assay: PD-L1 expression on Eμ-Myc lymphoma cell lines by flow cytometry (MFI) after in vitro treatment; format: cell-based, murine; settings: for expression of PD-L1 (CD274) on lymphoma cells (MFI): 24 hours in vitro, vs DMSO
Experimental: (§1) […] lymphoma cells (5×10^5) were incubated in the presence of JQ1, or DMSO, in 500 μL culture media in a 48 well plates (Corning, N.Y.) prior to analysis of PD-L1/L2 expression by flow cytometry. Human RPMI-8226 and L540 cells (5×10^5) were incubated in the presence of JQ1, or DMSO vehicle, in 500 μL culture media in a 48 well plates (Corning, N.Y.). Additionally RPMI-8226 cells were cultured with 100 ng/ML, IFN-γ as a single agent and in combination with JQ1, prior to analysis of PD-L1/L2 expression by flow cytometry.
Cell suspensions were washed once with ice-cold flow cytometry buffer (2% FCS and 0.02% NaN3 in PBS) and resuspended in anti-CD16/32 monoclonal antibody (clone 2.4G2) on ice for 30 minutes to block Fc receptors. Cell suspensions were washed once with ice-cold flow cytometry buffer and stained on ice for 30 minutes with the following conjugated antibodies: anti-mouse CD3 (pacific blue, 1:400, clone 17A2), anti-mouse CD4 (APC, 1:400, clone RM4-5), anti-mouse CD8 (PE-Cy7, 1:400, clone 53-6.7), anti-mouse PD-1 (FITC, 1:400, clone J43), anti-mouse PD-L1 (PE, 1:100, clone MIH5), anti-mouse PD-L2 (Biotin, 1:200, clone TY25), anti-human PD-L1 (PE, 1:200, clone 29E.2A3), or anti-human PD-L2 (Biotin, 1:200, clone 24F.10C12). Biotinylated antibodies were subsequently incubated with Streptavidin-PE-Cy7 (1:1000, catalogue number 25-4317-82) or Streptavidin-Pacific Blue (1:1000, catalogue number 48-4317-82) for 30 minutes on ice. Anti-Armenian Hamster IgG (FITC, 1:400, catalogue number 554011), Mouse IgG2aκ (PE, 1:100, clone RTK2758), Rat IgG2aκ (Biotin, 1:200, clone eBR2a), Mouse IgG2bκ (PE, 1:200, catalogue number 559529), and Mouse IgG2aκ (Biotin, 1:200, clone eBM2a) were used as isotype control antibodies, respectively. All antibodies were purchased from BioLegend (San Diego, Calif.), eBiosciences (San Diego, Calif.), or BD Bioscience (San Diego, Calif.). Cell suspensions were washed once with ice-cold flow cytometry buffer, resuspended in ice-cold flow cytometry buffer containing 7-AAD (1:1000, BD Bioscience) and analyzed by flow cytometry. Data was collected on a LSR Fortessa flow cytometer (BD Biosciences) and analyzed using FlowJo Software, version 10.0.7 (Tree Star).
As described in FIGS. 2A and 2B, JQ1 downregulates the expression of PD-L1 (CD274) on lymphoma cells as determined by flow cytometry analysis. Graphs showing the mean fluorescence intensity (MFI) of PD-L1 on Eμ-Myc lymphoma cell lines (FIG. 2A) ^#4242 and (FIG. 2B) ^#299 over-expressing Bcl-2 following 24 hours treatment in vitro with indicated concentrations of JQ1, or DMSO control are provided. Representative data are presented as mean MFI of cells cultured and analyzed in triplicate±S.E.M. (****p <0.0001, Student's t test).
PD-L1 downregulation following BET inhibition is time-dependent. Flow cytometry analysis of PD-L1 expression on Eμ-Myc lymphoma cell line ^#6066 following treatment in vitro with 500 nM JQ1 or DMSO control for indicated time points was performed.
Chemically distinct bromodomain inhibitors downregulate the expression of PD-L1 (CD274) on lymphoma cells, as shown by flow cytometry. […] Representative data are presented as mean MFI of cells cultured and analyzed in triplicate±S.E.M. (***p<0.001, Student's t test).

PD-L1 transcript = assay: Quantitative real-time PCR of PD-L1 mRNA in Eμ-Myc lymphoma cell lines; format: cell-based, Mus musculus; settings: 1000 nM; Eμ-Myc lymphoma #4242 and #299 over-expressing Bcl-2; indicated time points
Experimental: Eμ-Myc lymphomas cells were cultured in the presence of JQ1, or DMSO, as described above. RNA was extracted from cell pellets using the Nucleospine® RNA extraction kit (Macherey-Nagel, Bethlehem, Pa.) as per the manufacturer's instructions. cDNA was synthesized according to the manufacturer's instructions (Promega, Sydney, NSW). Quantitative PCR analysis of samples was performed on the 7900HT Fast Real-Time PCR System (Applied Biosystems, Mulgrave, VIC, Australia') with SYBR-green ROX mix (Agilent, Mulgrave, VIC, Australia). GAPDH was used as the murine control genes. Primer sequences were: Mus musculus PD-L1 F: […] (SEQ ID NO: 1) R: […] (SEQ ID NO: 2), Mus musculus GAPDH F: […] (SEQ ID NO: 3) R: […] (SEQ ID NO: 4).
Quantitative real-time-PCR (qPCR) analysis of PD-L1 mRNA levels in Eμ-Myc lymphoma cell lines (FIG. 2G) ^#4242 and (FIG. 2H) ^#299 over-expressing Bcl-2 following treatment with 1000 nM JQ1, or DMSO control, was performed at indicated time points. Transcript levels are presented as fold change compared to DMSO. Data are presented as mean fold-change from 3 separate experiments±S.E.M. (**p<0.01, ***p<0.001, ****p<0.0001, Student's t test).

Eμ-Myc lymphoma #299 = assay: Survival of mice bearing Eμ-Myc lymphoma #299 treated with JQ1 plus anti-PD-1 or anti-4-1BB antibody; format: in vivo, mouse; settings: JQ1 50 mg/kg i.p., 25 doses, combined with 100 μg anti-PD-1 (days 5, 10, 15, 20) or anti-4-1BB (days 5, 8, 11)
Experimental: (§2) Female C57BL/6 mice were purchased. C57BL/6.Rag2cγ^−/− mice were bred in house. C57BL/6.Rag1^−/− mice were purchased. For transplantation of Eμ-Myc lymphomas in vivo, cohorts of six- to eight-week-old syngeneic mice were inoculated via tail vein injection with 1-4×10^5 Eμ-Myc lymphoma cells. Mice were treated with 50 mg/kg JQ1, reconstituted in 1 part DMSO to 9 parts 10% (w/v) Hydroxypropyl-β-cyclodextrin (HPBCD; Cyclodextrin Technologies Development Inc., Gainesville, Fla.) In sterile water, or DMSO vehicle control. Mice were dosed once daily (5 days/week) via intra-peritoneal (i.p.) injection, commencing three days post-intravenous inoculation, for a total of 5 weeks therapy or until treatment failure. Tumor-bearing C57BL/6 mice were treated with the following monoclonal antibodies via i.p. injection: Anti-4-1-BB (Anti-CD137, 100 μg, 3H3; BioXCell), anti-PD-1 (100 μg, […]; BioXCell), or control immunoglobulin. (cIg, Rat IgG2a, 2A3, 100 μg; BioXCell). Anti-PD-1 mAb was dosed on days 5, 10, 15, and 20 post tumor transplant. Anti-4-1BB mAb was dosed on days 5, 8, and 11 post tumor transplant.
FIGS. 4A and 4B show Kaplan-Meier survival curves representing cohorts of […] (n=6 per treatment group) injected intravenously with 1-5×10^5 Eμ-Myc lymphoma ^#299 cells. […]

Eμ-Myc lymphoma = assay: Survival of mice bearing transplanted Eμ-Myc lymphoma (Kaplan-Meier); format: in vivo, mouse; settings: 50 mg/kg daily i.p.
Experimental: as §2
Cohorts of mice on a C57BL/6 background (n=10 per treatment group) were injected intravenously with 1-5×10^5 Eμ-Myc lymphoma cells three days prior to commencement of daily dosing with JQ1 (50 mg/kg), or DMSO vehicle., via i.p. injection. […]

PD-L1 [1] = assay: Constitutive PD-L1 expression on Hodgkin lymphoma cell line L540 by flow cytometry; format: cell-based, human; settings: L540 cells; 24 hours in vitro; indicated concentrations
Experimental: as §1
(§3) Cell suspensions were washed once with ice-cold flow cytometry buffer (2% FCS and 0.02% NaN3 in PBS) and resuspended in anti-CD16/32 monoclonal antibody (clone 2.4G2) on ice for 30 minutes to block Fc receptors. […] Cell suspensions were washed once with ice-cold flow cytometry buffer, resuspended in ice-cold flow cytometry buffer containing 7-AAD (1:1000, BD Bioscience) and analyzed by flow cytometry. Data was collected on a LSR Fortessa flow cytometer (BD Biosciences) and analyzed using FlowJo Software, version 10.0.7 (Tree Star). […]

PD-L2 (CD273) = assay: PD-L2 expression on tumor cells of treated lymphoma-bearing mice by flow cytometry; format: in vivo, mouse; settings: single dose 50 mg/kg; peripheral lymph nodes 16 hours after dose; Eμ-Myc lymphoma #4242 in C57BL/6 mice
Experimental: Cell suspensions were washed once with ice-cold flow cytometry buffer (2% FCS and 0.02% NaN3 in PBS) and resuspended in anti-CD16/32 monoclonal antibody (clone 2.4G2) on ice for 30 minutes to block Fc receptors. Cell suspensions were washed once with ice-cold flow cytometry buffer and stained on ice for 30 minutes with the following conjugated antibodies: anti-mouse CD3 (pacific blue, 1:400, clone 17A2), anti-mouse CD4 (APC, 1:400, clone RM4-5), anti-mouse CD8 (PE-Cy7, 1:400, clone 53-6.7), anti-mouse PD-1 (FITC, 1:400, clone J43), anti-mouse PD-L1 (PE, 1:100, clone MIH5), anti-mouse PD-L2 (Biotin, 1:200, clone TY25), anti-human PD-L1 (PE, 1:200, clone 29E.2A3), or anti-human PD-L2 (Biotin, 1:200, clone 24F.10C12). […] Cell suspensions were washed once with ice-cold flow cytometry buffer, resuspended in ice-cold flow cytometry buffer containing 7-AAD (1:1000, BD Bioscience) and analyzed by flow cytometry. Data was collected on a LSR Fortessa flow cytometer (BD Biosciences) and analyzed using FlowJo Software, version 10.0.7 (Tree Star). […]
(§4) A cohort of mice were injected intravenously with 1-5×10^5 Eμ-Myc lymphoma ^#4242 cells and left for 12 days to develop bulky nodal disease. Peripheral lymph nodes were harvested 16 hours following a single dose of JQ1 (50 mg/kg), or DMSO vehicle (n=3 per treatment group) and assessed by flow cytometry. […]

PD-L1 [2] = assay: PD-L1 expression on tumor cells of treated lymphoma-bearing mice by flow cytometry; format: in vivo, mouse
Experimental: as §3, §4
A cohort of mice were injected intravenously with 1-5×10^5 Eμ-Myc lymphoma ^#4242/Bcl-2 cells and treated daily with JQ1 (50 mg/kg), or DMSO vehicle (n=5 per treatment group). At day 18, peripheral blood was obtained and tumor cells were assessed by flow cytometry. […]

PD-L1 [3] = assay: IFN-γ-inducible PD-L1 expression on multiple myeloma cell line RPMI-8226 by flow cytometry; format: cell-based, human; settings: RPMI-8226 cells; 500 nM with 100 ng/mL IFN-γ; 24 hours
Experimental: as §1
Cell suspensions were washed once with ice-cold flow cytometry buffer (2% FCS and 0.02% NaN3 in PBS) and resuspended in anti-CD16/32 monoclonal antibody (clone 2.4G2) on ice for 30 minutes to block Fc receptors. […] Cell suspensions were washed once with ice-cold flow cytometry buffer, resuspended in ice-cold flow cytometry buffer containing 7-AAD (1:1000, BD Bioscience) and analyzed by flow cytometry. Data was collected on a LSR Fortessa flow cytometer (BD Biosciences) and analyzed using FlowJo Software, version 10.0.7 (Tree Star).
JQ1 treatment downregulates the IFN-γ-inducible expression of PD-L1 on human myeloma cell lines. […] Representative data are presented as mean MFI of cells cultured and analyzed in triplicate=S.E.M. (*p<0.05, Student's t test).

[4] = Eμ-Myc lymphoma cell line #6066, 1 μM

## Cc1sc2c(c1C)C(c1ccc(Cl)cc1)=N[C@@H](CC(=O)OC(C)(C)C)c1nnc(C)n1-2 [JQ1]
PD-L1 (CD274); Eμ-Myc lymphoma #4242 and #299 over-expressing Bcl-2, indicated concentrations
  expression of PD-L1 (CD274) on lymphoma cells (MFI): downregulates
PD-L1 (CD274); Eμ-Myc lymphoma cell line #6066, 500 nM, indicated time points
  time course of PD-L1 downregulation: time-dependent
PD-L1 (CD274); [4]
  expression of PD-L1 (CD274) on lymphoma cells (MFI): downregulate
PD-L1 transcript
  PD-L1 mRNA level (fold change compared to DMSO): rapidly downregulates
Eμ-Myc lymphoma #299
  anti-tumor response (survival) in combination therapy: Promotes Curative Anti-Tumor Responses
Eμ-Myc lymphoma; C57BL/6.Rag2cγ−/− and C57BL/6.Rag1−/− versus wild type C57BL/6
  survival of JQ1-treated immune deficient mice versus JQ1-treated wild type mice: succumbed to disease significantly earlier
Eμ-Myc lymphoma; immune competent (C57BL/6) and immune deficient (Rag2cγ−/−, Rag1−/−) mice, Eμ-Myc lymphoma #4242 and #299
  survival versus DMSO vehicle: significant survival advantage
PD-L1 [1]
  constitutive expression of PD-L1 (MFI): downregulates
PD-L2 (CD273)
  PD-L2 expression on live GFP-positive tumor cells (MFI), acute dose: rapidly downregulates
PD-L1 [2]; 50 mg/kg daily, peripheral blood at day 18, Eμ-Myc lymphoma #4242/Bcl-2 in C57BL/6 mice
  PD-L1 expression on circulating tumor cells (MFI), chronic treatment: express lower levels of PD-L1
PD-L1 [2]; single dose 50 mg/kg, peripheral lymph nodes 16 hours after dose, Eμ-Myc lymphoma #4242 in C57BL/6 mice
  PD-L1 expression on live GFP-positive tumor cells (MFI), acute dose: rapidly downregulates
PD-L1 [3]
  IFN-γ-inducible expression of PD-L1 (MFI): downregulates

## CCNC(=O)C[C@@H]1N=C(c2ccc(Cl)cc2)c2cc(OC)ccc2-n2c(C)nnc21 [IBET-762]
PD-L1 (CD274); [4]
  expression of PD-L1 (CD274) on lymphoma cells (MFI): downregulate

## COc1cc2c(cc1-c1c(C)noc1C)ncc1[nH]c(=O)n([C@H](C)c3ccccn3)c12 [IBET-1.51]
PD-L1 (CD274); [4]
  expression of PD-L1 (CD274) on lymphoma cells (MFI): downregulate

## Cc1sc2c(c1C)C(c1ccc(Cl)cc1)=N[C@@H](CC(=O)NCCCCNC(=O)COc1cccc3c1C(=O)N(C1CCC(=O)NC1=O)C3=O)c1nnc(C)n1-2 (some centres unmarked) [dBET1]
PD-L1 (CD274); [4]
  expression of PD-L1 (CD274) on lymphoma cells (MFI): downregulate

## COc1cc(OC)c2c(=O)[nH]c(-c3cc(C)c(OCCO)c(C)c3)nc2c1 [RVX-208]
PD-L1 (CD274); Eμ-Myc lymphoma cell line #6066, 10 μM
  expression of PD-L1 (CD274) on lymphoma cells (MFI): downregulate

## Cc1sc2c(c1C)C(c1ccc(Cl)cc1)=N[C@@H](CC(=O)Nc1ccc(O)cc1)c1nnc(C)n1-2 [Y803]
PD-L1 (CD274); [4]
  expression of PD-L1 (CD274) on lymphoma cells (MFI): downregulate
